From BigSolDB 2.1

C=C(C)[C@@H]1CC[C@]2(CO)CC[C@]3(C)[C@H](CC[C@@H]4[C@@]5(C)CC[C@H](O)C(C)(C)[C@@H]5CC[C@]43C)[C@@H]12
solubility (mole fraction)
Conditions	278.2 K	283.2 K	288.2 K	298.2 K	308.2 K
in acetone	0.000556	–	0.000866	0.00158	0.00227
in chloroform	0.0026	–	0.00338	0.00437	0.00511
in cyclohexane	–	1.68e-05	2.7e-05	6.34e-05	0.000167
in dichloromethane	0.00079	0.000837	0.000897	0.000991	–
in ethanol	0.000579	–	0.000658	0.000898	0.00113
in ethyl acetate	0.000963	–	0.00155	0.00207	0.00305
in ethyl formate	0.000301	–	0.000316	0.000333	0.000395
in methanol	0.000179	–	0.000248	0.000328	0.000397
in methyl acetate	0.000598	–	0.000705	0.000797	0.000917
in methyl formate	0.000187	0.000212	0.000257	0.000316	–
in n-butanol	0.00181	–	0.00213	0.00238	0.00271
in n-hexanol	0.000744	–	0.000846	0.00102	0.00127
in n-pentanol	0.00095	–	0.0012	0.00143	0.00171
in n-propanol	0.00113	–	0.00127	0.00146	0.0016
